Earlier results, collected in patent US20200046664A1, “METHOD FOR PREPARATION OF LIQUID ORAL COMPOSITION OF L-THYROXIN” (FTF PHARMA PRIVATE LIMITED, priority 2016, published 2020).

In the case of `N[C@@H](Cc1cc(I)c(Oc2cc(I)c(O)c(I)c2)c(I)c1)C(=O)[O-].[Na+]` [Levothyroxine sodium, Sodium (2S)-2-amino-3-[4-(4-hydroxy-3,5-diiodophenoxy)-3,5-diiodophenyl]propanoate], the “Solubility in ethanol (96 percent)” value (ethanol (96 percent)) is listed as “slightly soluble” and the Solubility in water (water) is listed as “very slightly soluble”.
